From patent US7138242B2, “Olfactory receptor expression libraries and methods of making and using them” (Johns Hopkins University, priority 1998, dated 2006)
Positions count from the first letter of the chain named.

Experiments:
[1] = test system: Rho/M4NC-β2 TM II–VII (TM II–VII region from the β2-adrenergic receptor in pCMV-Rho/M4NC); test: Single-cell FURA-2 Ca2+ imaging, HEK-293 cells co-transfected with Rho/M4NC-β2 TM II–VII and Gα15,16; type: cell-based, human; details: bath application; cells co-transfected with Gα15,16
Experimental: HEK-293 cells (obtained from the ATCC) were grown in DMEM supplemented with 10% fetal bovine serum, penicillin (100 U/ml), streptomycin (100 μg/ml) and L-glutamine (2 mM) in 5% CO2. […] After 5 to 7 hr incubation, the cells were washed once with PBS containing 0.5 mM EDTA and 10% DMSO, then with PBS before continuing growth in regular media for 40–50 hr.
Efficient screening of expressed olfactory receptors with a large number of ligands by functional analysis requires a robust and sensitive assay system. […] In this reporter system, (olfactory) receptor activation leads to the generation of an IP3-mediated increase in intracellular Ca^2+, which can be measured at the single-cell level with high sensitivity and good temporal resolution using the dye FURA-2 and radiofluorometric imaging.
A construct with the TM II–VII region from the β2-adrenergic receptor inserted in the pCMV-Rho/M4NC vector (Rho/M4NC-β2 TM II–VII) was co-transfected with Gα15,16 into HEK-293 cells. […] Images of fluorescent cells were obtained on a Zeiss 510 confocal microscope with excitation at 488 nm.
These transfected cells were then tested for their ability to functionally respond to ligand-receptor binding. The ligand, the adrenergic agonist isoproterenol, was “bath” applied to the transfected cells and single cell Ca^2+-imaging was performed. Cells were pre-loaded with the Ca^2+-sensitive fluorescent dye FURA-2 AM (Molecular Probes) by bathing in serum-free DMEM containing 4 μM of the membrane permeant chemical for 1 hr at 37° C., then washed with a standard bath solution (130 mM NaCl, 2 mM CaCl2, 5 mM KCl, 10 mM glucose, 10 mM Na.HEPES/pH 7.4 at room temperature). […] Acetylcholine was applied at the end of each experiment at 10 μM for 15–20 seconds. […] At 5-second intervals, the cells were sequentially illuminated for less than 100 ms, first at 340 nm and then at 380 nm. Fluorescence emission at 510 nm was monitored for each excitation wavelength via an intensified CCD camera. Averaged pixel intensities within 40 to 100 regions of interest, corresponding to 40 to 100 individual cells, were digitized and stored on a computer. Attofluor-Ratiovision software (Atto Instruments) was used to determine the Ca^2+-dependent fluorescence signal expressed as the F340/F380 ratio.

[2] = test system: Rho/M4NC-ratI7 TM II–VII chimeric receptor; test: Ca2+ imaging, HEK-293 cells co-expressing Rho/M4NC-ratI7 TM II–VII chimeric construct and Gα15,16; type: cell-based, rat; details: for relative Ca2+ response, octanal vs heptanal: identical experiments to mouse I7 chimera
Experimental: HEK-293 cells (obtained from the ATCC) were grown in DMEM supplemented with 10% fetal bovine serum, penicillin (100 U/ml), streptomycin (100 μg/ml) and L-glutamine (2 mM) in 5% CO2. Before transfection, the cells were seeded onto poly-L-lysine-coated 10.5×35×0.17 mm glass coverslips (Bellco) placed in the 60 mm culture dishes. Calcium phosphate-mediated transfections were performed in a 60 mm dish with 3 to 4 μg of receptor construct DNA, 1 μg of pCIS Gα 15 and Gα16 expression vector (Offermanns (1995) supra). 2 μg of pBluescript carrier DNA, and 0.3 μg of pRSV-T antigen expression vector (Gorman (1990) DNA and Protein Eng. Tech. 2:3–9). After 5 to 7 hr incubation, the cells were washed once with PBS containing 0.5 mM EDTA and 10% DMSO, then with PBS before continuing growth in regular media for 40–50 hr.
Efficient screening of expressed olfactory receptors with a large number of ligands by functional analysis requires a robust and sensitive assay system. Although the established role of cAMP in olfactory signaling offers a biochemical approach involving measurement of cAMP production in response to odorant stimulation, an alternative, rapid assay is to co-express the cloned olfactory receptors with G protein Gα15,16 subunits (see, e.g., Offermanns (1995) J. Biol. Chem. 270:15175–15180), which can promiscuously couple 7-transmembrane domain receptors that normally signal through other second messengers to the PIP2 pathway. In this reporter system, (olfactory) receptor activation leads to the generation of an IP3-mediated increase in intracellular Ca^2+, which can be measured at the single-cell level with high sensitivity and good temporal resolution using the dye FURA-2 and radiofluorometric imaging. These attributes were able to compensate for the low transfection efficiency in transient expression systems that would hinder more traditional biochemical assays.
These transfected cells were then tested for their ability to functionally respond to ligand-receptor binding. The ligand, the adrenergic agonist isoproterenol, was “bath” applied to the transfected cells and single cell Ca^2+-imaging was performed. Cells were pre-loaded with the Ca^2+-sensitive fluorescent dye FURA-2 AM (Molecular Probes) by bathing in serum-free DMEM containing 4 μM of the membrane permeant chemical for 1 hr at 37° C., then washed with a standard bath solution (130 mM NaCl, 2 mM CaCl2, 5 mM KCl, 10 mM glucose, 10 mM Na.HEPES/pH 7.4 at room temperature). For each experiment, a glass coverslip with FURA-2 loaded HEK 293 cells was introduced into an open-topped, longitudinal microperfusion chamber (300 μl bath volume mounted on a Zeiss Axiovert 135 microscope equipped with an F Fluar 40×/1.30 oil-immersion lens. The cells were superfused with test solutions typically for 30 to 40 seconds (5 ml/application) and washed out with 5 ml of bath solution at the end of each application. Each test solution was freshly diluted and manually applied with a micropipette into the chamber. Because of this manual procedure, there could be several seconds of delay in actual application from electronic tick marks used to define the beginning of application in each graph. At the same time, the solution flow might not be completely laminar. In most cases, the onset of Ca2+ rise in response to a specific solution occurred within 15 seconds of the beginning of solution application, though longer delays were sometimes observed. Acetylcholine was applied at the end of each experiment at 10 μM for 15–20 seconds. Ratiometric Ca^2+ measurements were performed as described by Grynkiewicz (1985) 260:3440–3450, with modifications using the Zeiss/Attofluor-Ratiovision imaging system. At 5-second intervals, the cells were sequentially illuminated for less than 100 ms, first at 340 nm and then at 380 nm. Fluorescence emission at 510 nm was monitored for each excitation wavelength via an intensified CCD camera. […]

[3] = molecular target: T1, full-length rat I7 olfactory receptor fused to rhodopsin N-terminus (Rattus norvegicus, UniProt P23270); test: Ca2+ imaging, HEK-293 cells expressing translocation domain (rhodopsin N-terminus) fused to full-length rat I7; type: cell-based
T1 construct: expressed in transfected cells; host or cells: HEK-293 with Gα15,16
T1 sequence (P23270 1-327): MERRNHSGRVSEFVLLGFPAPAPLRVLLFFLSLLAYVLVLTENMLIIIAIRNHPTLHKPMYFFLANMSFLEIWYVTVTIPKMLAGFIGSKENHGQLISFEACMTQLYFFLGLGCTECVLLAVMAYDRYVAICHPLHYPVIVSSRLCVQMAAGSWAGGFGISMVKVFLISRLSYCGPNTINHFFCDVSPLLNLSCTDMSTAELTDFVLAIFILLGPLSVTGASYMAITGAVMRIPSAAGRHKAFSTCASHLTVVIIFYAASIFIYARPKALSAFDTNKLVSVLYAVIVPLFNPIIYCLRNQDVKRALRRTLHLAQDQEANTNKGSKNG

[4] = test system: Rho/M4NC-mouse I7 transmembrane II–VII chimeric receptor; test: Ca2+ imaging, Rho/M4NC-mouse I7 TM II–VII chimeric receptor in HEK-293 cells; type: cell-based; details: 10 μM
[5] = molecular target: T2, full-length rat I7 receptor, residue 206 valine/isoleucine substitution (Rattus norvegicus, UniProt P23270, V206I); test: Ca2+ imaging, full-length rat I7 receptor with valine/isoleucine substitution at residue 206; type: cell-based; details: heptanal vs octanal
T2 construct: expressed in transfected cells; not repeated
T2 sequence (P23270 1-327 V206I): T1 sequence (P23270 1-327) with V206I

[6] = molecular target: T3, full-length mouse I7 receptor, residue 206 valine/isoleucine substitution (Mus musculus, UniProt Q9QWU6, I206V); test: Ca2+ imaging, full-length mouse I7 receptor with valine/isoleucine substitution at residue 206; type: cell-based; details: heptanal vs octanal
T3 construct: expressed in transfected cells; not repeated
T3 sequence (Q9QWU6 1-327 I206V): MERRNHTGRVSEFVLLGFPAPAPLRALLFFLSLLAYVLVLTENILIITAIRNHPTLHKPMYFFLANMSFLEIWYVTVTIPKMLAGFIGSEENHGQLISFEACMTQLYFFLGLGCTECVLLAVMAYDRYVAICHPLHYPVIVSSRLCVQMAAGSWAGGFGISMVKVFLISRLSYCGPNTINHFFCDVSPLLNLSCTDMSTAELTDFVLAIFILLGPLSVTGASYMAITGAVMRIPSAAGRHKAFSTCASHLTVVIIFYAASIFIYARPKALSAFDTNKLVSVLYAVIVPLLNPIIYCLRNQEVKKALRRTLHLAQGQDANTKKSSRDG

intracellular Ca2+ response ([3]; 30 μM) | ligand preference [5] | intracellular Ca2+ response ([3]; 1 μM) | ligand preference [6] | SMILES | intracellular Ca2+ response (FURA-2 F340/F380) [1] | intracellular Ca2+ response ([2]; 10 μM) | intracellular Ca2+ response ([2]; 30 μM) | relative Ca2+ response, octanal vs heptanal [2] | intracellular Ca2+ response [4] | Ca2+ response to a second application ([2]; second application, even at 30 μM (desensitization)) | dependence of the Ca2+ response on Gα15,16 ([2]; with vs without Gα15,16)
small response | preferentially recognize heptanal | – | – | CCCCCCC=O [heptanal] | no effect | not 10 μM | responded to 30 μM | responded better to octanal than to heptanal | responded only to heptanal | – | –
– | – | responded | preferentially recognize octanal | CCCCCCCC=O [octanal] | no effect | Ca^2+ transient was observed | – | responded better to octanal than to heptanal | – | little or no effect | required the presence of Gα15,16
